Measured values published in patent US5298494A, “Monosaccharides having anti-proliferation and anti-inflammatory activity, compositions and uses thereof” (Greenwich Pharmaceuticals Incorporated, priority 1993, dated 1994).
Like-named read-outs stand apart in the source and are kept apart here.

How the values were obtained:
[1] = tested on: T lymphocytes (normal mouse spleen cells) stimulated with ConA; test: Mouse Spleen Cell ConA Blastogenesis Assay; type: cell-based, mouse (C57Bl/6); details: Mus musculus, T-lymphocyte; for inhibition at 0.1 µg/mL: compound 0.1 ug/ml; for inhibition at 1 µg/mL: compound 1 ug/ml; for inhibition at 2.5 µg/mL: compound 2.5 ug/ml; for inhibition at 10 µg/mL: compound 10 ug/ml; for inhibition at 25 µg/mL: compound 25 ug/ml; for inhibition at 100 µg/mL: compound 100 ug/ml
[2] = tested on: T cell proliferation in mouse spleen cell mixed lymphocyte cultures; test: Mixed Lymphocyte Reaction (MLR) assay; type: cell-based, mouse (Balb/c responder, C57B1/6 stimulator); details: for inhibition at 3 µM / inhibition at 10 µM / inhibition at 30 µM / inhibition at 100 µM / inhibition at 300 µM: Mus musculus, Lymphocyte, read-out: % Change From Control, MLR
Source text: The pharmacologic assays performed to determine the immunomodulatory effects of the experimental compounds in vitro include the Mixed Lymphocyte Reaction (MLR) and the ConA blastogenesis assay. These assays were used to determine the inhibitory effects of the compounds of the invention on T lymphocyte activation and proliferation. Since inflammation at the cellular level is characterized by T lymphocyte recruitment, activation and proliferation, these assays are appropriate to use as screens for novel compounds having therapeutic potential in the treatment of disorders in which inflammatory mechanisms are involved.
The MLR is a classical assay used to measure T cell function by studying the proliferative response of T cells which are activated in vitro by genetically disparate stimulator cells. This is accomplished by co-culturing spleen cells from two different strains of mice. Splenic T cell proliferation occurs as a result of cellular activation signals generated by the ongoing cellular interactions.
Balb/c mice were euthanised by cervical dislocation and their spleens removed. Single cell suspensions of the spleens were prepared in culture medium (hepes buffered RPMI-1640 supplemented with 10% fetal calf serum, 2mM glutamine, 500 units penicillin/ streptomycin, and 4×10^-5 M 2-mercaptoethanol) using a Teflon pestle. The cells were centrifuged at 1500 rpm and the pellets resuspended in ACT (0.15M tris, 0.14M ammonium chloride, pH 7.2) in order to lyse the red blood cells. After a 5 minute incubation in a 37 C. waterbath, the cells were resuspended in culture medium and counted. C57B1/6 spleen cells which were used as stimulator cells, were also prepared by this method. The stimulator cells were treated with 100 ug/ml of mitomycin c for 1 hour at 37 C. (to inhibit stimulatory cell proliferation) and were then washed 5 times in culture medium. The proliferative responses were measured by culturing 2.5×10^5 responder cells with 5×10^5 stimulatory cells in 96 well microtiter plates in the presence or absence of various doses of test compounds or vehicle (DMSO). Syngeneic control cultures using mitomycin c treated Balb/c spleen cells as stimulator cells were also run. All cultures were run in triplicate.
Solutions of compounds of the present invention in DMSO were prepared at a stock concentration of 120 Mm. Dilutions were made in culture medium to the following concentrations: 3, 10, 30, 100, and 300 uM. The vehicle (DMSO) was used as a negative control.
After incubation of for 5 days at 37 C. with 5% CO2, the amount of cell proliferation was measured by adding 20 ul of MTT (3-[4,5-dimethylthiazol-2-yl]-2,5diphenyl-tetrazolium bromide) (10 mg/ml in phosphate buffered saline) to each well. Plates were incubated for 4 hours at 37 C., after which 180 ul of 10% sodium dodecyl sulphate in phosphate buffered saline was added. After an overnight incubation, the optical density (OD) of each well was read on a Molecular Devices microplate reader at 570-650 nm. The results were determined by calculating the difference between the means of the allogeneic cultures and the means of the syngenic cultures for each test article concentration. Differences of the test article groups were compared to the control group and the percent change from the control was determined.

[3] = ConA 1 ug/ml, 0.01 ug/ml, read-out: % Change from Control (Table II)
[4] = ConA 1 ug/ml, compound 0.01 ug/ml, read-out: % change from control, ConA blastogenic response
[5] = ConA 1 ug/ml, read-out: % change from control, ConA blastogenic response
[6] = ConA 4 ug/ml, 0.01 ug/ml, read-out: % Change from Control (Table II)
[7] = ConA 4 ug/ml, compound 0.01 ug/ml, read-out: % change from control, ConA blastogenic response
[8] = ConA 4 ug/ml, read-out: % change from control, ConA blastogenic response

| Compound | inhibition at 0.01 µg/mL [1, 3] [%] | inhibition at 0.01 µg/mL [1, 4] [%] | inhibition at 0.1 µg/mL [1, 5] [%] | inhibition at 1 µg/mL [1, 5] [%] | inhibition at 2.5 µg/mL [1, 5] [%] | inhibition at 10 µg/mL [1, 5] [%] | inhibition at 25 µg/mL [1, 5] [%] | inhibition at 100 µg/mL [1, 5] [%] | inhibition at 0.01 µg/mL [1, 6] [%] | inhibition at 0.01 µg/mL [1, 7] [%] | inhibition at 0.1 µg/mL [1, 8] [%] | inhibition at 1 µg/mL [1, 8] [%] | inhibition at 2.5 µg/mL [1, 8] [%] | inhibition at 10 µg/mL [1, 8] [%] | inhibition at 25 µg/mL [1, 8] [%] | inhibition at 100 µg/mL [1, 8] [%] | Mean O.D. Allogenic ([2]; 3 um) [O.D.] | Mean O.D. Syngeneic ([2]; 3 um) [O.D.] | Mean O.D. Allogenic ([2]; 10 um) [O.D.] | Mean O.D. Syngeneic ([2]; 10 um) [O.D.] | other results |
| --- | --- | --- | --- | --- | --- | --- | --- | --- | --- | --- | --- | --- | --- | --- | --- | --- | --- | --- | --- | --- | --- |
| CCCCCCCO[C@@H]1[C@@H](CO)O[C@@]2(OC)COC(C)(C)O[C@@H]12 [Ic, methyl 1,3-O-isopropylidene-4-O-heptyl-α-D-fructofuranoside] | -11 | -8 | 3 | 19 | 21 | 79 | 99 | 100 | 8 | -14 | 8 | 35 | 51 | 91 | 99 | 100 | 0.207 | 0.096 | 0.198 | 0.106 | Mean O.D. Allogenic ([2]; 30 um): 0.200 O.D.; Mean O.D. Syngeneic ([2]; 30 um): 0.148 O.D.; Mean O.D. Allogenic ([2]; 100 um): 0.163 O.D.; Mean O.D. Syngeneic ([2]; 100 um): 0.077 O.D.; Mean O.D. Allogenic ([2]; 300 um): 0.034 O.D.; Mean O.D. Syngeneic ([2]; 300 um): 0.159 O.D.; inhibition at 3 µM ([2]; 3 um): -34%; inhibition at 10 µM ([2]; 10 um): -11%; inhibition at 30 µM ([2]; 30 um): 37%; inhibition at 100 µM ([2]; 100 um): -4%; inhibition at 300 µM ([2]; 300 um): 251% |
| CCCCC/C=C\COC[C@H]1O[C@@]2(OC)COC(C)(C)O[C@H]2[C@@H]1OC/C=C\CCCCC [If, methyl 1,3-O-isopropylidene-4,6-di-O-(cis,2-octenyl)-α-D-fructofuranoside] | 8 | -6 | 2 | 14 | 25 | 74 | 85 | 4 | 4 | 0 | 23 | 26 | 42 | 79 | 87 | 88 | 0.195 | 0.140 | 0.199 | 0.134 | Mean O.D. Allogenic ([2]; 30 um): 0.199 O.D.; Mean O.D. Syngeneic ([2]; 30 um): 0.164 O.D.; Mean O.D. Allogenic ([2]; 100 um): 0.102 O.D.; Mean O.D. Syngeneic ([2]; 100 um): 0.025 O.D.; Mean O.D. Allogenic ([2]; 300 um): 0.032 O.D.; Mean O.D. Syngeneic ([2]; 300 um): 0.022 O.D.; inhibition at 3 µM ([2]; 3 um): 34%; inhibition at 10 µM ([2]; 10 um): 22%; inhibition at 30 µM ([2]; 30 um): 58%; inhibition at 100 µM ([2]; 100 um): 7%; inhibition at 300 µM ([2]; 300 um): 88% |
